# According to US12544391B2, “CD73 inhibitors” (ORIC Pharmaceuticals, Inc., priority 2019, dated 2026):
# Target: T1, CD73 (Homo sapiens, UniProt P21589)
# T1 sequence (P21589 27-549): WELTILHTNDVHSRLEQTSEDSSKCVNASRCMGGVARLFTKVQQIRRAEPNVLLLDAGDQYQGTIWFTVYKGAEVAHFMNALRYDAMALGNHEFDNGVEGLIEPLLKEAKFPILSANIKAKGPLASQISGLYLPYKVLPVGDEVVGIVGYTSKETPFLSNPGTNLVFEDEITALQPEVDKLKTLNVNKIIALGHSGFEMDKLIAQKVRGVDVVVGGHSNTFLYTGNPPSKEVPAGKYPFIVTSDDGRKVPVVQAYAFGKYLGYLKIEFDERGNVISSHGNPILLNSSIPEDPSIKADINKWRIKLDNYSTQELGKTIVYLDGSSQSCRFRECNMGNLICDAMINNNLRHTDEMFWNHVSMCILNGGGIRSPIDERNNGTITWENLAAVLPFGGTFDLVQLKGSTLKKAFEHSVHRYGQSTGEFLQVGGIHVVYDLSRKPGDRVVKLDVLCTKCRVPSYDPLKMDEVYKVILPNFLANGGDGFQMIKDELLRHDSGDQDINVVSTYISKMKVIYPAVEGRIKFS
# Assay: CD73 biochemical assay, Malachite Green detection of AMP hydrolysis
# Settings: CD73 320 pM, AMP 15 μM, Malachite Green readout
# Procedure: Assay Reaction Conditions
# • Assay Volume: 70 μl • Reaction Volume: 50 μl • CD73: 0.3208 nM • AMP: 15 μM • Assay Buffer: 2 5 mM Tris-HCL, pH 7.4, 0.01% Brij-35, 0.01% BSA, 5 mM MgCl2 Assay Procedure:
# A clear 384 well plate was used in this assay.
# Made dose titration of testing compounds in assay buffer, 10 points ½ log titrations in duplicates starting at 100 μM. Total volume for each well was 25 μl, with CD73 then added to each well for a final concentration of 320 pM. The solution was then incubated at RT for 15 min. 25 μl of AMP was added to each well for a final concentration of 15 μM, and then incubated at rt for 10 min. 10 μl of Malachite Green Reagent A was then added and allowed to incubate at rt for 10 min. 10 μl of Malachite Green Reagent B was then added and allowed to incubate at rt for 45 min. The absorbance for each sample was read on an Envision plate reader using excitation filter: Cy5 […].
# The ability of the compounds disclosed herein to inhibit CD73 activity was quantified and the respective IC50 values were determined. Table 2 provides the biochemical IC50 values of compounds disclosed herein.
row,IC50,SMILES
1,≤ 0.5 nM,"COCC(COC)(OC[C@H]1O[C@@H](c2ccc3c(NC4CCCC4)nc(Cl)nn23)[C@H](O)[C@@H]1O)P(=O)(O)O [Example 30, (2-(((2R,3S,4R,5S)-5-(2-chloro-4-(cyclopentylamino)pyrrolo[2,1-f][1,2,4]triazin-7-yl)-3,4-dihydroxytetrahydrofuran-2-yl)methoxy)-1,3-dimethoxypropan-2-yl)phosphonic acid]"
2,100 to 1000 nM,"C[C@@]1(c2ccc3c(NC4CCCC4)nc(Cl)nn23)O[C@H](CO[C@](CO)(COCc2nn[nH]n2)P(=O)(O)O)[C@@H](O)[C@H]1O [Example 37, ((S)-1-((2H-tetrazol-5-yl)methoxy)-2-(((2R,3S,4R,5S)-5-(2-chloro-4-(cyclopentylamino)pyrrolo[2,1-f][1,2,4]triazin-7-yl)-3,4-dihydroxy-5-methyltetrahydrofuran-2-yl)methoxy)-3-hydroxypropan-2-yl)phosphonic acid]"
3,≤ 0.5 nM,"O=P(O)(O)[C@](CO)(COCc1nn[nH]n1)OC[C@H]1O[C@@H](c2ccc3c(N[C@@H]4CCc5ccccc54)nc(Cl)nn23)[C@H](O)[C@@H]1O [Example 40, ((R)-1-((2H-tetrazol-5-yl)methoxy)-2-(((2R,3S,4R,5S)-5-(2-chloro-4-(((R)-2,3-dihydro-1H-inden-l-yl)amino)pyrrolo[2,1-f][1,2,4]triazin-7-yl)-3,4-dihydroxytetrahydrofuran-2-yl)methoxy)-3-hydroxypropan-2-yl)phosphonic acid]"
4,1 to 100 nM,"CCOC(=O)COCC(CO)(OC[C@H]1O[C@@H](c2ccc3c(NC4CCCC4)nc(Cl)nn23)[C@H](O)[C@@H]1O)P(=O)(O)O (stereo partly drawn) [Example 24, (2-(((2R,3S,4R,5S)-5-(2-chloro-4-(cyclopentylamino)pyrrolo[2,1-f][1,2,4]triazin-7-yl)-3,4-dihydroxytetrahydrofuran-2-yl)methoxy)-1-(2-ethoxy-2-oxoethoxy)-3-hydroxypropan-2-yl)phosphonic acid]"
5,≤ 0.5 nM,"COC[C@](COCC(=O)O)(OC[C@H]1O[C@@H](c2ccc3c(NC4CCCC4)nc(Cl)nn23)[C@H](O)[C@@H]1O)P(=O)(O)O [Example 25, 2-((S)-2-(((2R,3S,4R,5S)-5-(2-chloro-4-(cyclopentylamino)pyrrolo[2,1-f][1,2,4]triazin-7-yl)-3,4-dihydroxytetrahydrofuran-2-yl)methoxy)-3-methoxy-2-phosphonopropoxy)acetic acid]"
6,1 to 100 nM,"CC(CO)(OC[C@H]1O[C@@H](c2ccc3c(NC4CCCC4)nc(Cl)nn23)[C@H](O)[C@@H]1O)P(=O)(O)O (stereo partly drawn) [Example 19, (2-(((2R,3S,4R,5S)-5-(2-chloro-4-(cyclopentylamino)pyrrolo[2,1-f][1,2,4]triazin-7-yl)-3,4-dihydroxytetrahydrofuran-2-yl)methoxy)-1-hydroxypropan-2-yl)phosphonic acid]"
7,≤ 0.5 nM,"CCOC(=O)COC[C@@](COC)(OC[C@H]1O[C@@H](c2ccc3c(NC4CCCC4)nc(Cl)nn23)[C@H](O)[C@@H]1O)P(=O)(O)O [Example 26, ((S)-2-(((2R,3S,4R,5S)-5-(2-chloro-4-(cyclopentylamino)pyrrolo[2,1-f][1,2,4]triazin-7-yl)-3,4-dihydroxytetrahydrofuran-2-yl)methoxy)-1-(2-ethoxy-2-oxoethoxy)-3-methoxypropan-2-yl)phosphonic acid]"
8,1 to 100 nM,"O=P(O)(O)[C@](CO)(COCc1nn[nH]n1)OC[C@H]1O[C@@H](c2ccc3c(NCC4CCC4)nc(Cl)nn23)[C@H](O)[C@@H]1O [Example 53, ((R)-1-((2H-tetrazol-5-yl)methoxy)-2-(((2R,3S,4R,5S)-5-(2-chloro-4-((cyclobutylmethyl)amino)pyrrolo[2,1-f][1,2,4]triazin-7-yl)-3,4-dihydroxytetrahydrofuran-2-yl)methoxy)-3-hydroxypropan-2-yl)phosphonic acid]"
9,≤ 0.5 nM,"O=P(O)(O)C(CO)(COCc1nnn[nH]1)OC[C@H]1O[C@@H](c2ccc3c(NCC4CCC4)nc(Cl)nn23)[C@H](O)[C@@H]1O (stereo partly drawn) [Example 39, (1-((1H-tetrazol-5-yl)methoxy)-2-(((2R,3S,4R,5S)-5-(2-chloro-4-((cyclobutylmethyl)amino)pyrrolo[2,1-f][1,2,4]triazin-7-yl)-3,4-dihydroxytetrahydrofuran-2-yl)methoxy)-3-hydroxypropan-2-yl)phosphonic acid]"
10,≤ 0.5 nM,"O=c1[nH]c(COC[C@@](CO)(OC[C@H]2O[C@@H](c3ccc4c(NCC5CC5)nc(Cl)nn34)[C@H](O)[C@@H]2O)P(=O)(O)O)no1 [Example 44, ((S)-2-(((2R,3S,4R,5S)-5-(2-chloro-4-((cyclopropylmethyl)amino)pyrrolo[2,1-f][1,2,4]triazin-7-yl)-3,4-dihydroxytetrahydrofuran-2-yl)methoxy)-1-hydroxy-3-((5-oxo-4,5-dihydro-1,2,4-oxadiazol-3-yl)methoxy)propan-2-yl)phosphonic acid]"
11,100 to 1000 nM,"C[C@@]1(c2ccc3c(NC4CCCC4)nc(Cl)nn23)O[C@H](COC(CO)(COCc2nnn[nH]2)P(=O)(O)O)[C@@H](O)[C@H]1O (stereo partly drawn) [Example 29, (1-((1H-tetrazol-5-yl)methoxy)-2-(((2R,3S,4R,5S)-5-(2-chloro-4-(cyclopentylamino)pyrrolo[2,1-f][1,2,4]triazin-7-yl)-3,4-dihydroxy-5-methyltetrahydrofuran-2-yl)methoxy)-3-hydroxypropan-2-yl)phosphonic acid]"
12,≤ 0.5 nM,"[2H]C([2H])([2H])OC[C@](COCc1nn[nH]n1)(OC[C@H]1O[C@@H](c2ccc3c(NC4CCCC4)nc(Cl)nn23)[C@H](O)[C@@H]1O)P(=O)(O)O [Example 55, ((S)-1-((2H-tetrazol-5-yl)methoxy)-2-(((2R,3S,4R,5S)-5-(2-chloro-4-(cyclopentylamino)pyrrolo[2,1-f][1,2,4]triazin-7-yl)-3,4-dihydroxytetrahydrofuran-2-yl)methoxy)-3-(methoxy-d3)propan-2-yl)phosphonic acid]"
13,≤ 0.5 nM,"COCC(C)(OC[C@H]1O[C@@H](c2ccc3c(NC4CCCC4)nc(Cl)nn23)[C@H](O)[C@@H]1O)P(=O)(O)O (stereo partly drawn) [Example 22, (2-(((2R,3S,4R,5S)-5-(2-chloro-4-(cyclopentylamino)pyrrolo[2,1-f][1,2,4]triazin-7-yl)-3,4-dihydroxytetrahydrofuran-2-yl)methoxy)-1-methoxypropan-2-yl)phosphonic acid]"
